Experimental data taken from US20250313553A1, “ANNULATED 2-AMINO-3-CYANO THIOPHENES AND DERIVATIVES FOR THE TREATMENT OF CANCER” (Boehringer Ingelheim Int'l GmbH Corp., priority 2021, published 2025).
pIC50: −log10 of the molar value.

What was measured:
KRAS (G12D) and SOS1 = target: T1, KRAS (G12D) and SOS1 (Homo sapiens, UniProt P01116, G12D); assay: KRAS::SOS1 AlphaScreen binding assay, KRAS G12D
T1 construct: KRAS (G12D) 1-169, N-terminal 6His-tag; 6His (N); purchased Xtal BioStructures, Inc. (KRAS G12D); Viva Biotech Ltd (SOS1)
T1 sequence (P01116 1-169 isoform P01116-2 G12D): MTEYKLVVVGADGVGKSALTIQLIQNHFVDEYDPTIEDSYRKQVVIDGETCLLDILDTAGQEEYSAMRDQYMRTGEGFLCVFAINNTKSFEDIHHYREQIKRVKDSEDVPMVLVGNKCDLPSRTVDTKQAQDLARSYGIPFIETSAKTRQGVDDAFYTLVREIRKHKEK
Method: (§1) Low IC50 values in this assay setting are indicative of strong inhibition of protein-protein interaction between SOS1 and KRAS:
(§2) These assays measure the inhibitory effect of compounds on KRAS mutant protein-protein interactions using the Alpha Screen technology by Perkin Elmer.
(§3) For the chosen highest assay concentration of 100 μM, 150 nL of compound solution are transferred from a 10 mM DMSO compound stock solution. A series of eleven fivefold dilutions per compound are transferred to the assay plate, compound dilutions are tested in duplicates. DMSO are added as backfill to a total volume of 150 nL.
(§4) The assays run on a fully automated robotic system in a darkened room below 100 Lux. To 150 nl of compound dilution 10 μl of a mix including KRAS mutant protein, SOS1 (final assay concentrations see above) and GDP nucleotide (Sigma G7127; final assay concentration 10 μM) in assay buffer (1×PBS, 0.1% BSA, 0.05% Tween 20) are added into columns 1-24. After 30 minutes incubation time 5 μl of Alpha Screen bead mix in assay buffer are added into columns 1-23.
(§5) Plates are kept at room temperature in a darkened incubator. After an additional 60 minutes incubation time the signal is measured in a PerkinElmer Envision HTS Multilabel Reader using the AlphaScreen specs from PerkinElmer.
(§6) IC50 values are calculated and analyzed with Boehringer Ingelheim's MEGALAB IC50 application using a 4 parametric logistic model.

KRAS (G12C) and SOS1 = target: T2, KRAS (G12C) and SOS1 (Homo sapiens, UniProt P01116, C118S/C51S/C80L/G12C); assay: KRAS::SOS1 AlphaScreen binding assay, KRAS G12C
T2 construct: KRAS (G12C) 1-169, N-terminal 6His-tag for purification; 6His (N, cleaved yes)
T2 sequence (P01116 1-169 isoform P01116-2 G12C/C51S/C80L/C118S): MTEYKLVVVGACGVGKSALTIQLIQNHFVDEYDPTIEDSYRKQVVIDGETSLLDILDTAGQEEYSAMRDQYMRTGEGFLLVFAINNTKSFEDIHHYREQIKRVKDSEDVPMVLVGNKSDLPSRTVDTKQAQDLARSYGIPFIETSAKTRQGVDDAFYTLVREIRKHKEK
Method: as §1, §2, §3, §4, §5, §6

KRAS (G12V) and SOS1 = target: T3, KRAS (G12V) and SOS1 (Homo sapiens, UniProt P01116, C118S/G12V); assay: KRAS::SOS1 AlphaScreen binding assay, KRAS G12V
T3 construct: KRAS (G12V) 1-169, N-terminal 6His-tag for purification; 6His (N, cleaved yes); TEV cleavage site
T3 sequence (P01116 1-169 isoform P01116-2 G12V/C118S): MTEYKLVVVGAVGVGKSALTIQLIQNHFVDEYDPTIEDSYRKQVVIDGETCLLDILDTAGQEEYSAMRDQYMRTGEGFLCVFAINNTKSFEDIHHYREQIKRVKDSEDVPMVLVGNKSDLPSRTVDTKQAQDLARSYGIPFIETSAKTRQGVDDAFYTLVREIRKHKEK
Method: as §1, §2, §3, §4, §5, §6

KRAS G12V Ba/F3 cells = KRAS G12V Ba/F3 cells (Homo sapiens, UniProt P01116, G12V, cells depend on it); assay: Ba/F3 proliferation assay, KRAS G12V; type: cell-based; conditions: 72 h, AlamarBlue, read-out: KRAS G12V Ba/F3 IC50
Sequence of KRAS G12V Ba/F3 cells (P01116 whole entry G12V, canonical isoform): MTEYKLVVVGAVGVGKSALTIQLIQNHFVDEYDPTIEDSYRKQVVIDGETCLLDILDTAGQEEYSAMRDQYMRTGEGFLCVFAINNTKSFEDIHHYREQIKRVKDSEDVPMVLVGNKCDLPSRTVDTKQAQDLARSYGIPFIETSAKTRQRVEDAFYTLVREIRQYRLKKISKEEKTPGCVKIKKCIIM
Method: To generate KRASG12-dependent Ba/F3 models, Ba/F3 cells are transduced with retroviruses containing vectors that harbor KRASG12 isoforms. Platinum-E cells (Cell Biolabs) are used for retrovirus packaging. Retrovirus is added to Ba/F3 cells. To ensure infection, 4 μg/mL polybrene is added and cells are spinfected. […] Cells with an infection efficiency of 10% to 20% are further cultivated and puromycin selection with 1 μg/mL is initiated. As a control, parental Ba/F3 cells are used to show selection status. Selection is considered successful when parental Ba/F3 cells cultures died. To evaluate the transforming potential of KRASG12 mutations, the growth medium is no longer supplemented with IL-3. Ba/F3 cells harboring the empty vector are used as a control. Approximately ten days before conducting the experiments, puromycin is left out.
All treatments are performed in technical duplicates. […] AlamarBlue™ (ThermoFisher), a viability stain, is added and fluorescence measured in the PerkinElmer Envision HTS Multilabel Reader. The raw data are imported into and analyzed with the Boehringer Ingelheim proprietary software MegaLab (curve fitting based on the program PRISM, GraphPad Inc.).

NCI-H358 cells = assay: NCI-H358 CTG proliferation assay (120 h), assay 2; type: cell-based; conditions: Homo sapiens, 384-well, 200 cells per well
Method: NCI-H358 cells (ATCC No. CRL-5807) are dispensed into white bottom opaque 96 well plates (Perkin Elmer cat no. 5680) at a density of 2000 cells per well in 100 μL RPMI-1640 ATCC-Formulation (Gibco #A10491)+10% FCS (fetal calf serum) (assay 1) or into black 384-well plates, flat and clear bottom (Greiner, PNr. 781091) at a density of 200 cells per well in 60 μl RPMI-1640 ATCC-Formulation (Gibco #A10491)+10% FCS (fetal calf serum) (assay 2). […] Compounds (10 mM stock in DMSO) are added at logarithmic dose series using the HP Digital Dispenser D300 (Tecan) (assay 1) or the ECHO acoustic liquid handler system (Beckman Coulter) (assay 2), normalizing for added DMSO and including DMSO controls. For the T0 time point measurement, untreated cells are analyzed at the time of compound addition. Plates are incubated for 120 h, and cell viability is measured using CellTiter-Glo luminescent cell viability reagent (Promega product code G7570). Viability (stated as percent of control) is defined as relative luminescence units RLU of each well divided by the RLU of cells in DMSO controls. IC50 values are determined from viability measurements by non-linear regression using a four-parameter model.

Caco-2 assay = type: in vitro ADME; conditions: human; for Papp A→B at 90 min, 10 μM: Caco-2, pH 7.4, apical to basolateral, read-out: Caco PappAB; for efflux ratio at 90 min, 10 μM: Caco-2, pH 7.4, efflux ratio PappBA/PappAB, read-out: Caco ER
Method: The assay provides information on the potential of a compound to pass the cell membrane, on the extent of oral absorption as well as on whether the compound is actively transported by uptake and/or efflux transporters. Permeability measurements across polarized, confluent Caco-2 cell monolayers grown on permeable filter supports (Corning, catalog #3391) are used. […] The receiver and donor compartments contain 0.25% bovine serum albumine (BSA) in assay buffer. […] After a pre-incubation of 25-30 min at 37° C., at predefined time points (0, 30, 60 and 90 min), samples were taken from the receiver and donor compartment, respectively. Concentrations of test compounds in samples were measured by HPLC/MS/MS, samples from the donor compartment were diluted 1:50 (v:v) with assay buffer, samples from receiver compartment were measured without dilution.
Apparent permeabilities in a-b (PappAB) and b-a (PappBA) directions are calculated according to the formula:
[formula] • Vrec [mL]: buffer volume in receiver compartment • Cdon [μmol/mL]: concentration of test compound in donor compartment at t=0 • ΔCrec: difference between concentrations of test compound in receiver compartment at start and end of incubation time • Δt: Incubation time • Vrec·ΔCrec/Δt [μmol/min]: Amount of compound transferred to receiver compartment per time • A [cm^2]: filter surface
Caco-2 efflux ratios (ER) are calculated as the ratio of PappBA/PappAB.

pIC50 (KRAS (G12D) and SOS1) | pIC50 (KRAS (G12C) and SOS1) | pIC50 (KRAS (G12V) and SOS1) | GI50 (KRAS G12V Ba/F3 cells) [nM] | pIC50 (NCI-H358 cells) | Papp A→B at 90 min, 10 μM (Caco-2 assay) [×10⁻⁶ cm/s] | efflux ratio at 90 min, 10 μM (Caco-2 assay) | Structure (SMILES)
7.59 | 7.51 | 7.28 | 1440 | 6.03 | 25.6 | 0.7 | C[C@H]1CN(C)CCN1c1cccc(-c2noc([C@@]3(C)CCCc4sc(N)c(C#N)c43)n2)n1 [Example V-1]
8.52 | 8.22 | 8.22 | 917 |  | 26.4 | 1.5 | COCCCN1CCCN(c2nccc(-c3noc([C@@]4(C)CCCc5sc(N)c(C#N)c54)n3)n2)[C@@H](C)C1 [Example V-2]
7.82 | 7.64 |  | 1080 |  | 5 | 9.8 | C[C@H]1CNCCN1c1nccc(-c2noc([C@@]3(C)CCCc4sc(N)c(C#N)c43)n2)n1 [Example V-4]
8.15 | 8.10 |  | 640 |  | 21.4 | 1.7 | C[C@H]1CN(C)CCCN1c1nccc(-c2noc([C@@]3(C)CCCc4sc(N)c(C#N)c43)n2)n1 [Example V-5]
7.92 | 7.82 |  | 1070 |  | 1.2 | 19 | C[C@H]1CNCCCN1c1nccc(-c2noc([C@@]3(C)CCCc4sc(N)c(C#N)c43)n2)n1 [Example V-6]
7.80 | 7.66 |  | 1680 |  | 32.2 | 0.7 | C[C@H]1CN(C)CCN1c1nccc(-c2noc([C@@]3(C)CCCc4sc(N)c(C#N)c43)n2)n1 [Example V-7]
8.15 | 8.05 | 8.05 | 443 | 6.64 | 20.9 | 1.3 | C[C@H](Oc1cccc(-c2noc([C@@]3(C)CCCc4sc(N)c(C#N)c43)n2)n1)[C@@H]1CCCN1C [Example V-8]
8.30 | 8.30 |  | 76 | 5.92 | 27 | 0.9 | CC(C)N1CCCN(c2nccc(-c3noc([C@@]4(C)CCCc5sc(N)c(C#N)c54)n3)n2)[C@@H](C)C1 [Example V-9]
8.30 | 8.15 |  | 361 |  | 11.3 | 3.2 | C[C@H](Oc1nccc(-c2noc([C@@]3(C)CCCc4sc(N)c(C#N)c43)n2)n1)[C@@H]1CCCN1C [Example V-10]
8.10 | 7.62 | 7.74 | 1690 |  | 14 | 0.5 | C[C@H]1CN(C)CCN1c1nccc(-c2cc([C@@]3(C)CCCc4sc(N)c(C#N)c43)on2)n1 [Example V-27]

Structure (SMILES) | pIC50 (KRAS (G12D) and SOS1) | pIC50 (KRAS (G12C) and SOS1) | pIC50 (KRAS (G12V) and SOS1) | GI50 (KRAS G12V Ba/F3 cells) [nM] | pIC50 (NCI-H358 cells) | Papp A→B at 90 min, 10 μM (Caco-2 assay) [×10⁻⁶ cm/s] | efflux ratio at 90 min, 10 μM (Caco-2 assay)
C[C@H](Oc1ccnc(-c2noc([C@@]3(C)CCCc4sc(N)c(C#N)c43)n2)n1)[C@@H]1CCCN1C [Example V-11] |  |  |  |  | 6.61 | 13 | 
